From patent US6727237B2, “Inhibitors of bacterial NAD synthetase” (priority 1998, dated 2004)

Experiments:
[1] = system: Staphylococcus epidermitis; assay: Bacterial growth inhibition screen in LB media (absorbance 595 nm), percent inhibition; conditions: S. epidermitis
[2] = target: T1, bacterial NAD synthetase enzyme (Bacillus subtilis, UniProt P08164); assay: biochemical; format: biochemical
T1 sequence (P08164 2-272 limits assumed): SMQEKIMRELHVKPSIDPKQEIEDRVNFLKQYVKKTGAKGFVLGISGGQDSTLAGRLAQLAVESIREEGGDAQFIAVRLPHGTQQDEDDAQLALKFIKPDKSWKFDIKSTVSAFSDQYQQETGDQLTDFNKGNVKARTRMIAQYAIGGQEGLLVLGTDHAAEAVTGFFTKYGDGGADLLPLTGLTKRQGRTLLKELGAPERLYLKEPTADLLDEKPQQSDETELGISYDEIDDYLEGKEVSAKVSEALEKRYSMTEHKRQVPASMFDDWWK

[3] = compound at 0.2 mM (Table 312A)

| Compound | % Inhibition ([1]; concentration screened 100 uM) | % Inhibition [2, 3] | % Inhibition ([1]; concentration screened 10 uM) | % Inhibition ([2]; compound at 0.1 mM (Table 314)) | IC50 ([2]; lead compounds (Table 318A), read-out: IC 50) |
| --- | --- | --- | --- | --- | --- |
| Cc1ccc2[nH]c(CCCCCC[n+]3ccc4ccccc4c3)cc2c1 [Compound 513] | 17.86% | 23.66% |  |  |  |
| O=C(c1ccccc1)c1ccc2[nH]c(CCCC[n+]3ccccc3)cc2c1 [Compound 355] |  | 2.08% | 5.78% | 3.31% |  |
| COC(=O)c1ccc2[nH]c(CCCCCCC[n+]3ccc4ccccc4c3)cc2c1 [Compound 598] |  | 43.33% | 8.86% |  |  |
| c1ccc(-c2ccc3[nH]c(CCC[n+]4cccc5ccccc54)cc3c2)cc1 [Compound 432] |  | 13.21% | 8.91% |  |  |
| CC(C)c1ccc2[nH]c(CCC[n+]3cccc4ccccc43)cc2c1 [Compound 426] |  |  | 16.57% | 5.49% |  |
| Fc1cc(F)c2[nH]c(CCC[n+]3cccc4ccccc43)cc2c1 [Compound 408] |  | 7.04% | 1.88% |  |  |
| c1ccc(-c2ccc3[nH]c(CCCCCCCC[n+]4cccc5ccccc54)cc3c2)cc1 [Compound 437] |  | 6.91% | 11.84% |  |  |
| COc1ccc2[nH]c(CCCCC[n+]3ccc4ccccc4c3)cc2c1 [Compound 590] | 94.43% | 28.82% |  |  |  |
| O=[N+]([O-])c1ccc2c(ccn2CCCCCCO)c1 [Compound 862, 6-[N-(5-nitroindolyl)]hexan-1-ol] |  | 9.05% | 48.29% |  |  |
| c1ccc(C(c2ccccc2)(c2ccccc2)c2ccc3[nH]c(CCCCCCC[n+]4ccc5ccccc5c4)cc3c2)cc1 [Compound 556] |  |  | 60.18% | 18.19% |  |
| O=C(O)c1ccc2[nH]c(CCCCCCCC[n+]3ccc4ccccc4c3)cc2c1 [Compound 605] | 44.29% | 68.65% |  |  |  |
| COC(=O)c1ccc[n+](CCCCn2ccc3cc([N+](=O)[O-])ccc32)c1 [Compound 9] |  | 28.02% | 31.80% |  |  |
| FC(F)(F)c1ccc2[nH]c(CCCCCCC[n+]3ccccc3)cc2c1 [Compound 364] |  | 29.20% | 2.16% |  |  |
| Fc1ccc2[nH]c(CCCCCCC[n+]3ccc4ccccc4c3)cc2c1 [Compound 562] |  | 46.44% | 9.44% |  |  |
| Fc1ccc2[nH]c(CCCC[n+]3cccc4ccccc43)cc2c1 [Compound 451] |  |  | 5.57% | 2.94% |  |
| COC(=O)C=Cc1cn(CCCCCCC[n+]2cccc(C(=O)OC)c2)c2ccccc12 [Compound 269] |  |  | 46.12% | 51.12% |  |
| O=C(c1ccccc1)c1ccc2[nH]c(CCCCCC[n+]3cccc4ccccc43)cc2c1 [Compound 465] |  | 7.92% | 8.08% |  |  |
| Fc1cc(F)c2[nH]c(CCCCCC[n+]3ccccc3)cc2c1 [Compound 303] | 100.00% | 50.56% |  |  |  |
| O=[N+]([O-])c1cc([N+](=O)[O-])c2[nH]c(CCCC[n+]3cccc4ccccc43)cc2c1 [Compound 415] |  | 7.72% | 1.95% |  |  |
| CN(C)c1ccc(CC(=O)OCCCCCCn2ccc3cc([N+](=O)[O-])ccc32)cc1 [Compound 850] |  |  | 56.50% | 87.46% | 80 µM |
| CC(=O)c1ccc2[nH]c(CCCCCC[n+]3cccc4ccccc43)cc2c1 [Compound 477] |  | 10.15% | 3.69% |  |  |
| COC(=O)c1ccc2[nH]c(CCCCC[n+]3ccc4ccccc4c3)cc2c1 [Compound 596] | 96.36% | 56.49% |  |  |  |
| CC(=O)c1ccc2[nH]c(CCCCCCCOC(=O)C(c3ccccc3)c3ccccc3)cc2c1 [Compound 670] |  |  | 5.59% | 4.65% |  |
| CC(=O)c1ccc2[nH]c(CCCCOC(=O)c3ccc(N(C)C)cc3)cc2c1 [Compound 636] | 6.72% | 17.36% |  |  |  |
| c1ccc(C(c2ccccc2)(c2ccccc2)c2ccc3[nH]c(CCC[n+]4cccc5ccccc54)cc3c2)cc1 [Compound 444] |  |  | 5.85% | 8.55% |  |

| Compound | % Inhibition ([1]; concentration screened 100 uM) | % Inhibition [2, 3] | % Inhibition ([1]; concentration screened 10 uM) | % Inhibition ([2]; compound at 0.1 mM (Table 314)) | IC50 ([2]; lead compounds (Table 318A), read-out: IC 50) |
| --- | --- | --- | --- | --- | --- |
| O=C(c1ccccc1)c1ccc2[nH]c(CCCCC[n+]3ccc4ccccc4c3)cc2c1 [Compound 572] | 96.57% | 31.02% |  |  |  |
| O=C(O)c1ccc2[nH]c(CCCCCC[n+]3ccc4ccccc4c3)cc2c1 [Compound 603] |  | 51.72% | 1.60% |  |  |
| c1cc[n+](CCCCCCc2cc3ccccc3[nH]2)cc1 [Compound 285] | 98.57% | 32.45% |  |  |  |
| Cc1ccc2[nH]c(CCCC[n+]3cccc4ccccc43)cc2c1 [Compound 403] |  | 5.07% | 4.87% |  |  |
| CCCCc1ccc2[nH]c(CCCCCC[n+]3cccc4ccccc43)cc2c1 [Compound 423] |  | 12.09% | 16.85% |  |  |
| CC(C)c1ccc2[nH]c(CCCCC[n+]3cccc4ccccc43)cc2c1 [Compound 428] |  | 26.53% | 5.85% |  |  |
| c1ccc(C(c2ccccc2)(c2ccccc2)c2ccc3[nH]c(CCCCC[n+]4cccc5ccccc54)cc3c2)cc1 [Compound 446] |  | 13.78% | 3.69% |  |  |
| CC(=O)c1ccc2[nH]c(CCCCCCCC[n+]3ccc4ccccc4c3)cc2c1 [Compound 587] | 100.00% | 56.47% |  |  |  |
| CCCCc1ccc2[nH]c(CCC[n+]3ccccc3)cc2c1 [Compound 312] |  |  | 4.60% | 10.25% |  |
| O=C(c1ccccc1)c1ccc2[nH]c(CCCCCC[n+]3ccc4ccccc4c3)cc2c1 [Compound 573] |  | 26.24% | 16.09% |  |  |
| CC(C)c1ccc2[nH]c(CCCCCC[n+]3cccc4ccccc43)cc2c1 [Compound 429] |  | 13.01% | 3.06% |  |  |
| c1ccc(-c2ccc3[nH]c(CCCCC[n+]4ccccc4)cc3c2)cc1 [Compound 326] |  |  | 6.27% | 16.11% |  |
| O=[N+]([O-])c1cc([N+](=O)[O-])c2[nH]c(CCCCCC[n+]3cccc4ccccc43)cc2c1 [Compound 417] |  | 14.59% | 7.80% |  |  |
| c1ccc(C(c2ccccc2)(c2ccccc2)c2ccc3[nH]c(CCCCCCCC[n+]4cccc5ccccc54)cc3c2)cc1 [Compound 449] |  | 8.67% | 7.73% |  |  |
| CC(C)c1ccc2[nH]c(CCCCCCC[n+]3ccc4ccccc4c3)cc2c1 [Compound 538] |  | 40.95% | 43.05% |  |  |
| CC(C)c1ccc2[nH]c(CCC[n+]3ccccc3)cc2c1 [Compound 318] |  | 14.94% | 2.99% |  |  |
| O=C(OCCCCCCCCc1cc2cc(C(F)(F)F)ccc2[nH]1)C(c1ccccc1)c1ccccc1 [Compound 653] | 8.42% | 20.59% |  |  |  |
| CC(C)c1ccc2[nH]c(CCCCCCCC[n+]3ccc4ccccc4c3)cc2c1 [Compound 539] |  | 16.80% | 4.67% |  |  |
| O=[N+]([O-])c1ccc2[nH]c(CCCCC[n+]3cccc4ccccc43)cc2c1 [Compound 440] |  | 12.69% | 8.77% |  |  |
| CC(C)c1ccc2[nH]c(CCCCC[n+]3ccc4ccccc4c3)cc2c1 [Compound 536] | 96.64% | 32.49% |  |  |  |
| FC(F)(F)c1ccc2cc(CCC[n+]3cccc4ccccc43)[nH]c2c1 [Compound 396] |  |  | 1.53% | 3.64% |  |
| Fc1cc(F)c2[nH]c(CCCCCC[n+]3cccc4ccccc43)cc2c1 [Compound 411] |  | 8.84% | 15.74% |  |  |
| O=[N+]([O-])c1ccc2[nH]c(CCCCCCC[n+]3ccc4ccccc4c3)cc2c1 [Compound 550] |  | 28.18% | 4.40% |  |  |
| COC(=O)c1ccc2[nH]c(CCCCCCCC[n+]3cccc4ccccc43)cc2c1 [Compound 491] |  | 8.24% | 11.14% |  |  |
| Cc1ccc2[nH]c(CCCCCC[n+]3cccc4ccccc43)cc2c1 [Compound 405] |  | 6.07% | 44.01% |  |  |
